From the CheMixHub viscosity set
± gives the uncertainty stated by the source.

Test: xn = mol fraction of the nth substance listed

In the case of `ClCCCCCCCl` + c1ccccc1, the viscosity (308.15 K, 101 kPa, x1 = 0.09315) is reported as 0.565 ± 0.012 mPa·s, the viscosity (308.15 K, 101 kPa, x1 = 0.1846) is reported as 0.613 ± 0.013 mPa·s and the viscosity (308.15 K, 101 kPa, x1 = 0.2859) is reported as 0.668 ± 0.014 mPa·s. It also gave a viscosity (308.15 K, 101 kPa, x1 = 0.3958) of 0.733 ± 0.015 mPa·s, a viscosity (308.15 K, 101 kPa, x1 = 0.5003) of 0.824 ± 0.017 mPa·s and a viscosity (308.15 K, 101 kPa, x1 = 0.5842) of 0.92 ± 0.019 mPa·s. The viscosity (308.15 K, 101 kPa, x1 = 0.6836) was 1.066 ± 0.022 mPa·s, the viscosity (308.15 K, 101 kPa, x1 = 0.7842) was 1.217 ± 0.026 mPa·s and the viscosity (308.15 K, 101 kPa, x1 = 0.8829) was 1.393 ± 0.03 mPa·s. For the same compound, the viscosity (313.15 K, 101 kPa, x1 = 0.09315) was 0.546 ± 0.011 mPa·s, the viscosity (313.15 K, 101 kPa, x1 = 0.1846) was 0.591 ± 0.012 mPa·s and the viscosity (313.15 K, 101 kPa, x1 = 0.2859) was 0.645 ± 0.014 mPa·s. It also gave a viscosity (313.15 K, 101 kPa, x1 = 0.3958) of 0.704 ± 0.015 mPa·s, a viscosity (313.15 K, 101 kPa, x1 = 0.5003) of 0.789 ± 0.017 mPa·s and a viscosity (313.15 K, 101 kPa, x1 = 0.5842) of 0.888 ± 0.019 mPa·s. The viscosity (313.15 K, 101 kPa, x1 = 0.6836) was 1.014 ± 0.021 mPa·s, the viscosity (313.15 K, 101 kPa, x1 = 0.7842) was 1.164 ± 0.025 mPa·s and the viscosity (313.15 K, 101 kPa, x1 = 0.8829) was 1.324 ± 0.028 mPa·s. The viscosity (318.15 K, 101 kPa, x1 = 0.09315) was 0.505 ± 0.011 mPa·s, the viscosity (318.15 K, 101 kPa, x1 = 0.1846) was 0.548 ± 0.012 mPa·s and the viscosity (318.15 K, 101 kPa, x1 = 0.2859) was 0.594 ± 0.012 mPa·s. For the same compound, the viscosity (318.15 K, 101 kPa, x1 = 0.3958) was 0.642 ± 0.014 mPa·s, the viscosity (318.15 K, 101 kPa, x1 = 0.5003) was 0.72 ± 0.015 mPa·s and the viscosity (318.15 K, 101 kPa, x1 = 0.5842) was 0.809 ± 0.017 mPa·s. The viscosity (318.15 K, 101 kPa, x1 = 0.6836) was 0.929 ± 0.02 mPa·s, the viscosity (318.15 K, 101 kPa, x1 = 0.7842) was 1.056 ± 0.022 mPa·s and the viscosity (318.15 K, 101 kPa, x1 = 0.8829) was 1.197 ± 0.025 mPa·s.

`C[N+](C)(C)CCC[N+]1(C)CCCCC1.N#C[N-]C#N.N#C[N-]C#N` + CCO gave a viscosity (293.15 K, 100 kPa, x1 = 0.5002) of 280.5 ± 32 mPa·s, a viscosity (303.15 K, 100 kPa, x1 = 0.7998) of 828.4 ± 110 mPa·s and a viscosity (323.15 K, 100 kPa, x1 = 0.5002) of 70.55 ± 7.1 mPa·s.

Work on `CCCCOP(=O)(O)OCCCC` + CCCN yielded a viscosity (297 K, 101 kPa, x2 = 0.15) of 60 ± 10 mPa·s, a viscosity (297 K, 101 kPa, x2 = 0.3) of 100 ± 30 mPa·s and a viscosity (297 K, 101 kPa, x2 = 0.48) of 1370 ± 270 mPa·s. The viscosity (297 K, 101 kPa, x2 = 0.5) was 1700 ± 330 mPa·s and the viscosity (297 K, 101 kPa, x2 = 0.66) was 170 ± 40 mPa·s.

`COc1ccccc1C` + CCCCCOC(C)=O showed a viscosity (298.15 K, 101 kPa, x1 = 0.5) of 0.8659 ± 0.0086 mPa·s.

In the case of `C=C(C)C(=O)OC` + COCCO, the viscosity (298.15 K, 101.3 kPa, x1 = 0.0557) is reported as 1.449 ± 0.009 mPa·s, the viscosity (298.15 K, 101.3 kPa, x1 = 0.1541) is reported as 1.237 ± 0.008 mPa·s and the viscosity (298.15 K, 101.3 kPa, x1 = 0.2554) is reported as 1.068 ± 0.007 mPa·s. It also gave a viscosity (298.15 K, 101.3 kPa, x1 = 0.3538) of 0.941 ± 0.006 mPa·s, a viscosity (298.15 K, 101.3 kPa, x1 = 0.4561) of 0.836 ± 0.006 mPa·s and a viscosity (298.15 K, 101.3 kPa, x1 = 0.4992) of 0.799 ± 0.005 mPa·s. It also gave a viscosity (298.15 K, 101.3 kPa, x1 = 0.553) of 0.759 ± 0.005 mPa·s, a viscosity (298.15 K, 101.3 kPa, x1 = 0.6543) of 0.696 ± 0.005 mPa·s and a viscosity (298.15 K, 101.3 kPa, x1 = 0.7542) of 0.65 ± 0.005 mPa·s. It also gave a viscosity (298.15 K, 101.3 kPa, x1 = 0.8539) of 0.616 ± 0.004 mPa·s, a viscosity (298.15 K, 101.3 kPa, x1 = 0.9543) of 0.592 ± 0.004 mPa·s and a viscosity (308.15 K, 101.3 kPa, x1 = 0.0557) of 1.149 ± 0.008 mPa·s. The viscosity (308.15 K, 101.3 kPa, x1 = 0.1541) was 1.01 ± 0.007 mPa·s, the viscosity (308.15 K, 101.3 kPa, x1 = 0.2554) was 0.892 ± 0.006 mPa·s and the viscosity (308.15 K, 101.3 kPa, x1 = 0.3538) was 0.799 ± 0.006 mPa·s. The viscosity (308.15 K, 101.3 kPa, x1 = 0.4561) was 0.72 ± 0.005 mPa·s, the viscosity (308.15 K, 101.3 kPa, x1 = 0.4992) was 0.691 ± 0.005 mPa·s and the viscosity (308.15 K, 101.3 kPa, x1 = 0.553) was 0.658 ± 0.005 mPa·s. For the same compound, the viscosity (308.15 K, 101.3 kPa, x1 = 0.6543) was 0.606 ± 0.004 mPa·s, the viscosity (308.15 K, 101.3 kPa, x1 = 0.7542) was 0.564 ± 0.004 mPa·s and the viscosity (308.15 K, 101.3 kPa, x1 = 0.8539) was 0.529 ± 0.004 mPa·s. It also gave a viscosity (308.15 K, 101.3 kPa, x1 = 0.9543) of 0.502 ± 0.004 mPa·s.

`C=C(C)C(=O)OC` + CCCCOCCO gave a viscosity (298.15 K, 101.3 kPa, x1 = 0.0589) of 2.45 ± 0.015 mPa·s, a viscosity (298.15 K, 101.3 kPa, x1 = 0.1467) of 2.063 ± 0.013 mPa·s and a viscosity (298.15 K, 101.3 kPa, x1 = 0.2571) of 1.682 ± 0.011 mPa·s. The viscosity (298.15 K, 101.3 kPa, x1 = 0.3556) was 1.416 ± 0.009 mPa·s, the viscosity (298.15 K, 101.3 kPa, x1 = 0.4555) was 1.201 ± 0.008 mPa·s and the viscosity (298.15 K, 101.3 kPa, x1 = 0.5016) was 1.117 ± 0.007 mPa·s. The viscosity (298.15 K, 101.3 kPa, x1 = 0.5559) was 1.028 ± 0.007 mPa·s, the viscosity (298.15 K, 101.3 kPa, x1 = 0.6734) was 0.868 ± 0.006 mPa·s and the viscosity (298.15 K, 101.3 kPa, x1 = 0.7556) was 0.778 ± 0.005 mPa·s. The viscosity (298.15 K, 101.3 kPa, x1 = 0.857) was 0.686 ± 0.005 mPa·s, the viscosity (298.15 K, 101.3 kPa, x1 = 0.9547) was 0.613 ± 0.004 mPa·s and the viscosity (308.15 K, 101.3 kPa, x1 = 0.0589) was 1.998 ± 0.013 mPa·s. It also gave a viscosity (308.15 K, 101.3 kPa, x1 = 0.1467) of 1.704 ± 0.011 mPa·s, a viscosity (308.15 K, 101.3 kPa, x1 = 0.2571) of 1.408 ± 0.009 mPa·s and a viscosity (308.15 K, 101.3 kPa, x1 = 0.3556) of 1.196 ± 0.008 mPa·s. The viscosity (308.15 K, 101.3 kPa, x1 = 0.4555) was 1.021 ± 0.007 mPa·s, the viscosity (308.15 K, 101.3 kPa, x1 = 0.5016) was 0.952 ± 0.006 mPa·s and the viscosity (308.15 K, 101.3 kPa, x1 = 0.5559) was 0.878 ± 0.006 mPa·s. It also gave a viscosity (308.15 K, 101.3 kPa, x1 = 0.6734) of 0.742 ± 0.005 mPa·s, a viscosity (308.15 K, 101.3 kPa, x1 = 0.7556) of 0.664 ± 0.005 mPa·s and a viscosity (308.15 K, 101.3 kPa, x1 = 0.857) of 0.583 ± 0.004 mPa·s. It also gave a viscosity (308.15 K, 101.3 kPa, x1 = 0.9547) of 0.518 ± 0.004 mPa·s.
